In patent publication EP0530446A2, “Use of sulfur containing carboxylic acids for combatting pathophysiologic excitatory disorders and related diseases as well as allergic diseases and their preparation as medicament” (ASTA Medica Aktiengesellschaft, priority 1991, dated 1993):

Legend:
EEG der Ratte = assay: Tele-Stereo-EEG in the rat: prevention of EEG changes caused by hypoglycaemic or ischaemic insult; type: in vivo; conditions: 30 mg/kg i.p., compared with pre-dose value (Vorwert)
Description: Die erfindungsgemäßen Verbindungen der Formel zeigen beispielsweise im Modell zum Nachweis der Prevention der durch hypoglykämischen beziehungsweise ischämischen Insult verursachte Veränderungen im EEG der Ratte (im Vergleich zum Vorwert) bei der parenteralen Applikation (i.p. = intraperitoneal) bei 30 mg/kg (i.p.) des Racemats der alpha-Liponsäure 118 %, bei 30 mg/kg i.p. des (+)-Enantiomers 157 % und bei 30 mg/kg i.p. des (-)-Enantiomers 85 % Änderung der Leistungsdichte des beta-2-Bandes im frontalen Kortex.
Diese Untersuchung erfolgte analog der Methode Dimpfel et al, Neuropsychobiology 16: 163 - 168, (1986) mit der Änderung, daß die Ableitung vom Hippokampus anstelle des Thalamus erfolgt. (Radioelectroencephalography (Tele-Stereo-EEG) in the rat as a pharmacological model to differentiate the central action of flupirtine from that of opiates, diazepam and phenobarbital)
Männliche Fischer-344 Ratten wurden im Alter von 4 bis 5 Monaten 4 bipolar konzentrische Elektroden zusammen mit einem Mikrostecker auf einer gemeinsamen Basisplatte implantiert. Der Stecker diente der Aufnahme eines 4-Kanal-Senders zur telemetrischen Übertragung der aus frontalem Kortex, Hippokampus, Striatum und Formatio Reticularis abgeleiteten Feldpotentiale. Die Signale wurden auf einem Pro Science Computer System in Echtzeit einer Fast Fourier Transformation unterworfen und die Leistungsdichtespektren jeweils über 15 Minuten gemittelt. Die Unterteilung der Spektren in 6 verschiedene Frequenzbereiche erlaubte die Erfassung pharmakonspezifischer Veränderungen in Bezug auf die jeweils vor der Applikation gemessenen Vorwerte innerhalb dieser Frequenzbänder.
Zum Applikationsprotokoll der Substanzen: Die Substanzen wurden intraperitoneal 45 Minuten nach Beginn der Messungen (Vorwert) injiziert. Fünf Minuten später wurden die Messungen wieder gestartet, mindestens über die nächsten 2 Stunden kontinuierlich analysiert und in 15-minütigen Perioden zusammengefaßt. Die Testsubstanzen (zum Beispiel Thioctsäure) wurden in einer Dosierung von 30 mg/kg appliziert. […]

[1] = test system: PAF (Platelet-activating-Factor)-Acether-Ödem; assay: PAF-acether paw oedema in the rat; type: in vivo, Ratte; conditions: 0.5 h before PAF-acether 2 ug/animal subplantar, oedema read 1 h later
Description: Die antiallergische Wirkung wird unter anderem durch Untersuchungen im PAF (Platelet-activating-Factor)-Acether-Ödem an der Ratte belegt.
Prinzip der Methode ist es, durch subplantare Injektion von PAF-Acether 2 ug/Tier ein lokal begrenztes Ödem beziehungsweise eine Entzündung an der Rattenpfote zu erzeugen. Die Untersuchungen werden in Anlehnung an die Methode nach SWINGLE und REITER (Agents and actions, 18, 358-365, (1986)) durchgeführt. Die Tiere erhalten die Prüfsubstanzen 0,5 Stunden vor der Auslösung des Ödems verabreicht. 1 Stunde danach wird das Ödem plethysmographisch ermittelt.

[2] = test system: Hippocampusschnitt-Präparat von morphiumabhängigen Ratten; assay: Hippocampal slice preparation of morphine-dependent rats after 16 h withdrawal, excitability at decreasing Mg++; conditions: slices 16 h after morphine withdrawal (2 mg/kg s.c. twice daily for 2 weeks), tested at 100 µM
Description: Die bei Ratten 16 Stunden nach dem Entzug von Morphium (2 mg/kg Morphium subcutan, 2 x täglich über 2 Wochen lang) aus dem Hippocampus entnommenen Präparate wurden abnehmenden Magnesiumkonzentrationen im Superfusionsmedium ausgesetzt, um Platizitätsveränderungen bei der Erregbarkeit der Pyramidenzellen nachweisen zu können. Die elektrisch ausgelösten und spontanen Entladungen wurden in Abwesenheit und Gegenwart der S(-)-Form der a-Liponsäure beobachtet. […] Hierdurch ergibt sich eine Anwendung/Verwendung von a-Liponsäure bei Entziehungserscheinungen bei Drogenabhängigkeit.
Zwei Gruppen ausewachsener, männlicher CD-Ratten (Charles River Wiga) erhielten handelübliches Rattenfutter ad libitum. In den beiden Versuchwochen erhielten die Tiere der ersten Gruppe zweimal täglich 2 mg/kg Morphium. Der Kontrollgruppe wurde Kochsalzlösung injiziert. Das Körpergewicht wurde täglich registriert. 16 Stunden vor Beginn der Messung der Erregbarkeit ex vivo erhielten die mit Morphium behandelten Tiere keine Injektion mehr, um den Entzug einzleiten.
Die Tiere wurden in leichter Narkose ausgeblutet, das Gehirn wurde in toto entnommen und die Formatio hippocampi unter stereomikroskopischer Kontrolle isoliert. […]

[3] = test system: Hippocampusschnitt-Präparat von ethanolabhängigen Ratten; assay: Hippocampal slice preparation of ethanol-dependent rats after 16 h withdrawal, excitability at decreasing Mg++; conditions: slices 16 h after ethanol withdrawal (5 g/kg/day for 2 weeks), tested at 246 pg/ml
Excerpt: Die bei Ratten 16 Stunden nach dem Absetzen von Ethanol (5 g/kg/Tag Ethanol über einen Zeitraum von 2 Wochen) aus dem Hippocampus entnommenen Präparate wurden abnehmenden Magnesiumkonzentrationen im Superfusionsmedium ausgesetzt, um Plasizitätsveränderungen bei der Erregbarkeit der Pyramidenzellen nachweisen zu können. Die elektrisch ausgelösten und spontanen Entladungen wurden in Abwesenheit und Gegenwart der S(-)-Form der a-Liponsäure beobachtet.
Zwei Gruppen ausgewachsener, männlicher CD-Ratten (Charles River Wiga) erhielten handelsübliches Rattenfutter ad libitum. Das Trinkwasser wurde durch den Zusatz von 1 g Glukose/Liter gesüßt. Eine der Gruppen erhielt Wasser, das 5 % Ethanol enthielt. Die von den Tieren aufgenommene Wassermenge wurde täglich bestimmt und betrug in beiden Gruppen durchschnittlich 40 ml. Folglich nahm die Ethanolgruppe während des zweiwöchigen Versuches - ausgehend von ihrem durchschnittlichen Gewicht - innerhalb von 24 Stunden etwa 5 g/kg Ethanol auf.
Den Tieren wurde das modifizierte Trinkwasser über einen Zeitraum von 2 Wochen verabreicht. Außerdem wurde das Körpergewicht täglich ermittelt, wobei zwischen den beiden Gruppen keine Differenz beobachtet werden konnte. 16 Stunden vor Beginn der Messung der Erregbarkeit ex vivo erhielten die mit dem Ethanol behandelten Tiere ebenfalls glukosehaltiges Trinkwasser, um den Entzug einzuleiten. […]

Compound	Änderung der Leistungsdichte des beta-2-Bandes im frontalen Kortex (EEG der Ratte) [%]	Ödemhemmung in % ([1]; 25 mg/kg intraperitoneal) [%]	Ödemhemmung in % ([1]; 50 mg/kg intraperitoneal) [%]	spontane Entladungen ([2]; decreasing Mg++)	Spitzenamplituden der Population ([2]; lower Mg++ concentrations)	ausgelöste Entladungen [3]	Ödemhemmung in % ([1]; 200 mg/kg intraperitoneal) [%]
O=C(O)CCCCC1CCSS1 (racemic) [α-Liponsäure, reference compound]	118	14	16	–	–	–	–
O=C(O)CCCC[C@@H]1CCSS1 [(+)-Enantiomers, R(+)-a-Liponsäure]	157	–	–	–	–	–	–
O=C(O)CCCC[C@H]1CCSS1 [(-)-Enantiomers, S(-)-a-Liponsäure]	85	–	–	abzuschwächen	auf Normalwerte zu senken	vollständige Dämpfung	–
O=C(O)CCCCC(S)CCS (stereo not shown) [Dihydroliponsäure, 6,8-Dimercapto-octansäure]	–	–	63	–	–	–	73
